Data: PubChem BioAssay AID2823 (Broad Institute, 2010)
Activity calls are given as the source filed them. No rule for the calls is given here.

Each compound was assayed against RanGTP-importin-beta complex (human Ran / KPNB1) (assay: disruptors of RanGTP/KPNB1 binding – biochemical, FRET, CFP/YFP, cell-free homogeneous, confirmation (AID 2823)). Conditions: CFP-Ran/YFP-importin-beta FRET ratio.

Row | SMILES | IC50
1 | CCCn1cnc2cc(NCc3ccc(Br)cc3)ccc21 | > 50 µM (inactive)
2 | Nc1nc(CSc2nnnn2-c2ccc(Cl)cc2)nc(N2CCOCC2)n1 | > 50 µM (inactive)
3 | Cc1c(OC(=O)N(C)C)ccc2c1O/C(=C\c1ccco1)C2=O | 12.5 µM
4 | CS(=O)(=O)c1nsc2nc(=O)c(/C=C3\C=Nc4ccccc43)c(N)n12 | 15.1 µM
5 | Cc1ccc(S(=O)(=O)N2CCCN(c3nc4cc(C)ccc4cc3C#N)CC2)cc1 | 29.8 µM
6 | CCN(CC)S(=O)(=O)c1ccc(OC)c(NC(=O)C2CC(=O)N(c3ccc(C)cc3)C2)c1 (stereo unspecified) | > 50 µM (inactive)
7 | O=C(Cc1cc(=O)oc2cc(O)ccc12)NCC1CCC(C(=O)O)CC1 (stereo unspecified) | 10.4 µM
8 | O=C(NCC1CCN(Cc2ccccc2Cl)CC1)Nc1ccccc1F | > 50 µM (inactive)
9 | NC(N)=N/N=C/c1ccc(N(c2ccccc2)c2ccccc2)cc1 | 16.8 µM
10 | C=CCn1c(SCC(=O)Nc2sccc2C(N)=O)nc2ccccc2c1=O | > 50 µM (inactive)
11 | C/C(=C\C(=O)C(F)(F)F)Nc1ccc(C(F)(F)F)cc1 | > 50 µM (inactive)
12 | S=c1[nH]c2ccc3ccccc3c2[nH]1 | > 50 µM (inactive)
13 | CCCN1CCC2(CC1)C(C#N)=C(N)Oc1c2sc2nc(C)cc(C)c12 | > 50 µM (inactive)
14 | O=C1C(=O)N(CCS(=O)(=O)c2ccccc2)c2ccc(Cl)cc21 | > 50 µM (inactive)
15 | CC(C)CN(Cc1c(O)ccc2ccccc12)CC(C)C | > 50 µM (inactive)
16 | COC(=O)Cc1c(C)c2cc(Cl)c(OC(=O)c3ccco3)cc2oc1=O | 14.2 µM
17 | COc1cccc(NC(=O)Nc2ccc3c(c2)N(C)C(=O)CS3)c1 | > 50 µM (inactive)
18 | CC1CC(=O)N(CC(=O)Nc2cccc(Cl)c2)c2ccccc2S1(=O)=O (stereo unspecified) | > 50 µM (inactive)
19 | CCN(/N=C/C=C/c1ccccc1)c1cc(=O)n(C)c(=O)[nH]1 | > 50 µM (inactive)
20 | Cc1ccccc1N=Cc1cc2c(cc1O)OC(N)=C(C#N)C2c1ccccc1 (stereo unspecified) | > 50 µM (inactive)
21 | C=CCn1c(=O)c(C(=O)Nc2ccc(C)cc2)c(O)c2ccccc21 | > 50 µM (inactive)
22 | O=C(c1ccco1)c1cc2c(ccc3ccccc32)oc1=O | 25 µM
23 | COc1ccc(-c2c(C)c3ccc(O)cc3oc2=O)cc1OC | 37.2 µM
24 | Nc1nc(CSc2nc3ccccc3s2)nc(N2CCCCC2)n1 | > 50 µM (inactive)
25 | Cc1ccc2nc(/C(C#N)=C/c3ccc(O)c(O)c3)[nH]c2c1 | > 50 µM (inactive)
26 | COc1ccccc1S(=O)Cc1ccc(C(=O)O)o1 (stereo unspecified) | > 50 µM (inactive)

Row | SMILES | IC50
27 | CNS(=O)(=O)c1cc(OC)c(OC)cc1CC(=O)OC | > 50 µM (inactive)
28 | COc1ccc(-c2nc(NC(=O)c3n[nH]c(=O)c4ccccc34)sc2C)cc1 | > 50 µM (inactive)
29 | Oc1c(CN2CCN(c3ccc(F)cc3)CC2)cc(Cl)c2cccnc12 | > 50 µM (inactive)
30 | CC1(C)CC(=O)NC=C(c2ccccc2)C1 | > 50 µM (inactive)
31 | COc1ccc(CNC(=O)C2CC(=O)N(C3CCCCC3)C2)cc1 (stereo unspecified) | > 50 µM (inactive)
32 | CCN(CC)Cc1c(O)ccc2c(C)c(CC(=O)OC)c(=O)oc12 | 14 µM
33 | CC#CC(=O)N1CCC(C(=O)Nc2ccc(Oc3ccccc3)nc2)CC1 | > 50 µM (inactive)
34 | CC1C=CCC2C(=O)N(c3ccccc3OC(=O)c3cccs3)C(=O)C12 (stereo unspecified) | > 50 µM (inactive)
35 | CC1(C)CC(=O)C=C(Nc2ccccc2O)C1 | > 50 µM (inactive)
36 | CCOC(=O)C1=C(C)NC2=C(C(=O)C(C(=O)OCC)C(c3ccc(OC)cc3)C2)C1c1ccccn1 (stereo unspecified) | 28.4 µM
37 | Cc1ccc(-c2cc3nc(-c4ccccc4)cc(N4CCC5(CC4)OCCO5)n3n2)cc1 | 44 µM
38 | CC1(C)CC(=O)C=C(NNC(=O)C2CCCCC2)C1 | > 50 µM (inactive)
39 | O=C(O)c1ccccc1C(=O)Nc1ccc(Br)c2cccnc12 | > 50 µM (inactive)
40 | O=C(O)Cn1cc(/C=C2/SC(=O)N(CC(=O)N3CCCCCC3)C2=O)c2ccccc21 | 44.1 µM
41 | CCc1ccc(CNc2ccc3c(c2)ncn3C(C)(C)C)cc1 | > 50 µM (inactive)
42 | Cc1cc2c(c(=O)n1Cc1cccnc1)C(Cc1ccccc1)C(C#N)=C(N)O2 (stereo unspecified) | > 50 µM (inactive)
43 | Cc1nc2[nH]c(=O)c3c(n2n1)NC1=C(C(=O)CC(C)(C)C1)C3c1ccc(F)cc1 (stereo unspecified) | 2.73 µM
44 | CCCN(CCO)Cc1cccc(Br)c1 | > 50 µM (inactive)
45 | NC(=S)Cc1nc(-c2ccc(Cl)cc2)cs1 | > 50 µM (inactive)
46 | C=CCNC(=O)c1cccc(OC2CCN(CC(C)(C)C)CC2)c1 | > 50 µM (inactive)
47 | CCOc1ccc(Nc2c3ccccc3nc3ccccc23)cc1 | > 50 µM (inactive)
48 | CC(CC(F)(F)F)N1CCC(n2nccc2NC(=O)CCOc2ccccc2)CC1 (stereo unspecified) | > 50 µM (inactive)
49 | CC(C)SCC(=O)Nc1ncc2c(n1)-c1ccccc1CC2 | 10.1 µM
50 | C=CCN1C(=O)/C(=C\c2ccc(OC(=O)c3ccco3)c(OC)c2)SC1=S | > 50 µM (inactive)
51 | Cc1cc2c(c(=O)n1C1CC1)C(c1cccc(Cl)c1)C(C#N)=C(N)O2 (stereo unspecified) | > 50 µM (inactive)
52 | CN1CCN(c2cc(=O)n(-c3ccc(Cl)cc3)c(=O)[nH]2)CC1 | > 50 µM (inactive)

Row | SMILES | IC50
53 | Cc1nc2nc(CCNS(=O)(=O)c3ccc(Cl)cc3)cn2nc1C | 41.2 µM
54 | COc1ccc(NC(=O)c2ccc3snnc3c2)cc1 | > 50 µM (inactive)
55 | COc1ccc(CCNc2nc3ccccc3n3nnnc23)cc1OC | 40.1 µM
56 | Cc1ccc(N2CCN(c3ccc(C)cc3)C2c2ccccn2)cc1 | > 50 µM (inactive)
57 | CC1(C)CC(=O)C/C(=N\NC(=O)Cc2ccccc2)C1 | > 50 µM (inactive)
58 | Cc1c(O)c(CN2CCCCC2)cc2c3c(c(=O)oc12)CCC3 | 9.04 µM
59 | N#C/C(=C\c1ccc(N2CCOCC2)o1)C(=O)NC1CCCCC1 | 2.76 µM
60 | COC(=O)C1=CN(Cc2cccs2)C=C(C(=O)OC)C1c1ccc(OC)cc1OC | 6.08 µM
61 | C#CCOc1ccc(C2C3=C(CC(C)(C)CC3=O)N(CC(=O)O)C3=C2C(=O)CC(C)(C)C3)cc1OC | 32 µM
62 | CCN(C(=O)c1c(C)cc(=O)oc1C)c1ccc2c(c1)OCO2 | > 50 µM (inactive)
63 | COc1ccc(C(=O)Cc2cnn(-c3ccccc3)c2)c(O)c1 | > 50 µM (inactive)
64 | COCCCn1c(N)c(C(=O)OC(C)COC)c2nc3ccccc3nc21 (stereo unspecified) | 24.8 µM
65 | CC1C2(C)OC(=N)C(C#N)(C(C)O2)C1(C#N)C#N (stereo unspecified) | 44.2 µM
66 | Cc1ccc(Nc2nc(N)nc(CC#N)n2)cc1 | > 50 µM (inactive)
67 | Clc1ccc(/C=C\c2nccc3c2[nH]c2ccccc23)cc1 | > 50 µM (inactive)
68 | O=Cc1ccc(N2Cc3ccccc3C2)cc1 | > 50 µM (inactive)
69 | COc1cc2c(cc1OC)CN(Cc1cccs1)CC2 | > 50 µM (inactive)
70 | COc1ccccc1C(=O)NCCNc1nc2cc(C)cc(C)c2cc1C#N | 39.5 µM
71 | O=C(Cn1c2ccccc2c(=O)c2ccccc21)Nc1ccccc1F | 5.51 µM
72 | N#CC1=C(N)OC2=C(CCc3ccccc32)C1c1ccccc1 (stereo unspecified) | > 50 µM (inactive)
73 | CC1Cc2cc(S(=O)(=O)NCc3ccccc3)ccc2N1C(=O)C1CC1 (stereo unspecified) | > 50 µM (inactive)
74 | O=C(Nc1ccnc(-c2ccncc2)n1)c1ccc(Cl)cc1 | > 50 µM (inactive)
75 | N#Cc1c(N)nc2c(c1-c1ccc(F)cc1)CCC2 | 11 µM
76 | CCCNS(=O)(=O)c1ccc2c(c1)CCCN2C(C)=O | > 50 µM (inactive)
